The values that follow come from patent US20150283227A1, “SYNTHETIC ENV PROTEINS” (priority 2012, published 2015).

The subject of series [1] is BnAb PG9. It counts as binding, human.
Method: V1V2 glycopeptide binding Kd and rate constant measurements were carried out on a BIAcore 3000 instrument using an anti-human Ig Fc capture assay as described earlier (Alam, S. M.; McAdams, M.; Boren, D.; Rak, M.; Scearce, R. M.; Gao, F.; Camacho, Z. T.; Gewirth, D.; Kelsoe, G.; Chen, P.; Haynes, B. F. J. Immunol. 2007, 178, 4424-4435.). Anti-human IgG Fc antibody (Sigma Chemicals) was immobilized on a CM5 sensor chip to about 10000 response units (RU), and each antibody was captured to about 300 RU. Anti-RSV Synagis mAb was captured on the same sensor chip as a control surface. Non-specific binding and drift in signal was double referenced by subtracting binding to the control surface and blank buffer flow for each of the peptide binding interactions. All curve-fitting analyses were performed using global fit of multiple titrations to the 1:1 Langmuir model. All data analysis was performed using the BIAevaluation 4.1 analysis software (GE Healthcare).
The test system of series [2] is BnAb CH01. The series is described as follows: SPR binding of V1V2 peptides/glycopeptides to captured mAb CH01. Also noted: species or system human. (SPR reads the build-up and loss of mass on a sensor chip optically.)
The subject of series [3] is V2 mAb CH58. The series is described as follows: SPR binding of V1V2 peptides/glycopeptides to captured V2 mAb CH58. More on the design: species or system human.
Series [4] relates to V2 mAb CH59. Briefly: SPR binding of V1V2 peptides to captured V2 mAb CH59. More on the design: species or system human. Particulars: Example 6; peptide oxidized by solubilization in DMSO, 50 ug/mL. The text has this: FIGS. 42A-42D. Selective binding of V1V2 BnAbs to mannose derivatized V1V2 glycopeptides but not to aglycone or GlcNAc2 V1V2 peptides. SPR curves showing preferential binding of PG9 and CH01 BnAbs to Man5—(FIG. 42A) and Man3—(FIG. 42B) GlcNAc2 V1V2 glycopeptides but not to GlcNAc2 (FIG. 42C) and aglycone (FIG. 42D) peptides. By contrast, V2 mAbs CH58 and CH59 bound to both aglycone ([…]) and GlcNAc2 (FIG. 42D) V1V2 peptides. Each V1V2 peptide was oxidized by solubilization in DMSO and injected over the indicated MAb at 50 ug/mL. Data shown is after reference subtraction of non-specific signal measured over the control mAb (Synagis). Binding data are representative of at least three experiments for Man5 and Man3 V1V2 peptides and two experiments for GlcNAc2 and aglycone V1V2.
V1V2 glycopeptide binding Kd and rate constant measurements were carried out on BIAcore 3000 instruments as described earlier (Alam et al, Immunol. 178(7):4424-4435 (2007), Alam et al, J. Virol. 82(1):115-125 (2008)). Anti-human IgG Fc antibody (Sigma Chemicals) was immobilized on either a CM3 or CM5 (CM3 for kinetics and Kd determination) sensor chip (to minimize non-specific binding of peptides to chip matrix) to about 5000 Resonance Unit (RU) and each antibody was captured to about 100-200 RU on individual flow cells, in addition to one flow cell with the control Synagis mAb on the same sensor chip. […]

The test system of series [5] is PG9 UCA. Briefly: SPR binding to unmutated ancestor of PG9. More on the design: species or system human. Particulars: for SPR binding to PG9 UA: Example 1. As to the method:
(§1) Only the V1/V2 mAb CH58 bound to the glycan-deficient (aglycone) peptide (FIG. 9A). V1/V2 bNAbs ([…], CH01) bound weakly to V1/V2 GlcNAc2 peptide (FIG. 9B). In contrast, both bNAbs PG9 and CH01 bound avidly to the glycopeptides, V1/V2 Man3GlcNAc2 and V1/V2 Man5GlcNAc2 (FIGS. 9C and 9D). CH58 bound weakly to both glycopeptides. Each of the mAbs was captured on a human Fc specific IgG directly immobilized on a BIAcore CM5 sensor chip. Each of the V1/V2 peptides (3 min at 50 uL/min) was injected over the mAb captured surface and SPR binding was monitored on a BIAcore 3000 instrument. Non-specific binding of peptides was subtracted following measurement of signal on a surface with a control ant-RSV mab Synagis.
(§2) The binding Kd (disassociation constant) of the UAs ranges from about 0.15 to 0.2 μM.
(§3) V1V2 glycopeptide binding Kd and rate constant measurements were carried out on BIAcore 3000 instruments as described earlier (Alam et al, Immunol. 178(7):4424-4435 (2007), Alam et al, J. Virol. 82(1):115-125 (2008)). Anti-human IgG Fc antibody (Sigma Chemicals) was immobilized on either a CM3 or CM5 (CM3 for kinetics and Kd determination) sensor chip (to minimize non-specific binding of peptides to chip matrix) to about 5000 Resonance Unit (RU) and each antibody was captured to about 100-200 RU on individual flow cells, in addition to one flow cell with the control Synagis mAb on the same sensor chip. Non-specific binding of V1V2 glycopeptide was double-referenced by substracting the control surface and blank buffer flow for each mAb-V1V2 glycopeptide binding interaction. […] SPR curve fitting analysis was performed using global fit of multiple titrations to the 1:1 Langmuir model. All data analysis was performed using the BIAevaluation 4.1 analysis software (GE Healthcare).

Series [6] concerns CH01 UCA. The series is described as follows: SPR binding to unmutated ancestor of CH01. Also noted: species or system human. Particulars: for SPR binding to CH01 UA: Example 1. As to the method: as §1, §2, §3
Series [7] has as its system CH58 UCA. The series is described as follows: SPR binding to unmutated ancestor of CH58. Also noted: species or system human. Particulars: Example 1. As to the method: as §1, §3
Series [8] relates to 697D. Briefly: SPR binding to conformational V2 mAb 697D. The settings on record: Example 1.
A short description of series [9]: Aqueous solubility in phosphate buffer. It is filed as physicochemical.
Where [10] appears, read: Example 6, peptide solubilized/oxidized in DMSO, 50 μg/mL.
Setting [11] is: listed as V1V2 aglycone peptide.

Read-outs that look alike come from different tables or passages of the source. Where a SMILES comes first, the peptide text is derived from it. [ ]: non-standard residue; d: D form. ξ: configuration not given here. Orn(CH(NH2)2) = NC(N)NCCC[C@H](N)C(=O)O; Ile(3ξ) = CCC(C)[C@H](N)C(=O)O; Thr(3ξ) = CC(O)[C@H](N)C(=O)O

On to `CCC(C)[C@H](NC(=O)[C@@H]1CCCN1C(=O)[C@@H](NC(=O)[C@@H](NC(=O)[C@H](CC(=O)O)NC(=O)[C@H](CC(C)C)NC(=O)[C@H](CCCCN)NC(=O)[C@H](Cc1ccc(O)cc1)NC(=O)[C@H](Cc1ccccc1)NC(=O)[C@H](CC(C)C)NC(=O)[C@H](C)NC(=O)[C@H](Cc1cnc[nH]1)NC(=O)[C@@H](NC(=O)[C@H](CCCCN)NC(=O)[C@H](CCC(N)=O)NC(=O)[C@H](CCCCN)NC(=O)[C@H](CCCCN)NC(=O)[C@H](CC(=O)O)NC(=O)[C@H](CCCNC(=N)N)NC(=O)[C@H](CC(C)C)NC(=O)[C@H](CCC(=O)O)NC(=O)[C@@H](NC(=O)[C@@H](NC(=O)[C@H](CCSC)NC(=O)[C@H](CC(N)=O)NC(=O)[C@H](Cc1ccccc1)NC(=O)[C@H](CO)NC(=O)[C@H](CS)NC(=O)[C@H](CC(N)=O)NC(=O)[C@H](CCCNC(N)N)NC(=O)[C@@H](NC(=O)[C@H](CCC(=O)O)NC(=O)[C@H](CC(=O)O)NC(=O)[C@@H](NC(=O)[C@@H](NC(C)=O)C(C)CC)C(C)O)C(C)C)C(C)O)C(C)O)C(C)C)C(C)CC)C(C)C)C(N)=O` (some centres unmarked) [Aglycone V1V2] (Ac-[Ile(3ξ)][Thr(3ξ)]DEV[Orn(CH(NH2)2)]NCSFNM[Thr(3ξ)][Thr(3ξ)]ELRDKKQKVHALFYKLD[Ile(3ξ)]VP[Ile(3ξ)]-NH2), for which the “SPR binding to PG9” value in series [1] (Example 5, peptides 200 μg/mL, glycans 25 μg/mL over captured PG9) is “not detected”; in [1] (Example 5, peptides 200 μg/mL, glycans 25 μg/mL over captured PG9, listed as V1V2 aglycone), “minimal to no binding”; in [1] (setting [10]), “no binding”. Also, the “SPR binding to CH01” value in series [2] (Example 1, peptide injected over captured mAb) was “not to the aglycone peptide”; in [2] (setting [10]), “no binding”. Further, the “SPR binding to CH58” value in series [3] (Example 1, antigen injected over captured mAb) is “bound”; in [3] (Example 6, peptide solubilized/oxidized in DMSO, 1-50 μg/mL), “retained”. Moreover, the “SPR binding to CH59” value in [4] is given as “bound”. Moreover, the “SPR binding to PG9 UA” value in series [5] is “not to the aglycone peptide”; in series [5] (setting [11]), “no binding”. The “SPR binding to PG9 UCA” value in series [5] (Example 6) is “neither UCAs bound”. Besides, the “SPR binding to CH01 UA” value in series [6] was “not to the aglycone peptide”; in [6] (setting [11]), “no binding”. Besides, in [6] (Example 6), the “SPR binding to CH01 UCA” value is listed as “neither UCAs bound”. Moreover, the “SPR binding to CH58 UA” value in series [7] was “no binding”. Also, in [8], the “SPR binding to 697D” value is “not to the aglycone peptide”. Moreover, in series [9], the aqueous solubility entry is given as “Poor aqueous solubility”.
